Measurements taken from patent US11779567B2, “Method for optimizing 5-hydroxytryptamine function in the brain for therapeutic purposes” (Evecxia Therapeutics, Inc., priority 2021, dated 2023).
≈ marks a conversion by molar mass, not a printed value. Where “and” joins values, the source holds several entries; their conditions need not be identical. Equal values may be shown once. Read-outs that look alike come from different tables or passages of the source.

Experiments:
[1] = Solubility of 5-HTP; format: physicochemical; details: water, read-out: aqueous solubility
Experimental: The aqueous solubility of 5-HTP is approximately 10 mg/ml. However, 5-HTP has been reported to be soluble to up to about 100 mg/ml in some solvents (Jacobsen et al, 2016a). In some embodiments, the concentration of 5-HTP in the infusion solutions (i.e., the infusate fluids) is between about 1 mg/ml and about 10 mg/ml. In some embodiments, the concentration is between about 0.1 mg/ml and about 1 mg/ml. In some embodiments, the concentration is between about 10 mg/ml and about 100 mg/ml.

[2] = Plasma 5-HTP pharmacokinetics of 24 h continuous IV 5-HTP infusion, Phase 1 study; format: in vivo, human
Experimental: Study Design. A Phase 1, randomized, double-blind, placebo-controlled, single ascending dose study was performed to evaluate the safety, tolerability and pharmacokinetics (PK) of 5-HTP solution for IV infusion when administered to healthy adults taking a selective serotonin reuptake inhibitor (SSRI), escitalopram, for 3 weeks. Study duration was 37±3 days. The total individual subject participation time was no more than 66 days including screening, dosing, and follow-up phases. The IV infusion duration was 24 h, dosing with 5-HTP solution for IV infusion (see Example 3, above) or placebo (0.9% saline).
Subjects. A total of 39 healthy male and female subjects were randomized across 5 cohorts, each with 8 subjects (6 active:2 placebo) per cohort except for Cohort 5 (5 active:2 placebo). For each cohort, first 2 sentinel subjects received IV 5-HTP (N=1) or placebo (N=1) prior to dosing of the remaining 5 or 6 subjects.
IV infusion. 5-HTP solution for IV infusion or placebo was administered IV at a constant rate or ramped rate of infusion over 24 hr.
Constant rate infusion. 5-HTP solution for IV infusion was administered at constant infusion rates of 1 mg/kg/24 hr in Cohort 1 and 3 mg/kg/24 hr in Cohort 2. The infusion rate was 41.67 ml/h.
Ramp rate infusion. To gradually elevate 5-HTP plasma levels, 5-HTP solution for IV infusion was administered at a ramp rate of infusion for Cohorts 3, Cohort 4, and Cohort 5, at average 5-HTP infusion rates of 3 mg/kg/24 hr, 2 mg/kg/24 hr and 1 mg/kg/24 hr, respectively. The infusion volume rates were 13.89 ml/hr at T=0-4 hr; 27.78 ml/hr at T=4-8 hr; 41.67 ml/hr at T=8-12 hr; and 55.55 ml/hr at T=12-24 hr.
Bioanalysis. Plasma samples for 5-HTP analysis were collected and stored at −80° C. Plasma samples for escitalopram analysis were collected and stored at −80° C. Plasma 5-HTP levels and plasma escitalopram levels were measured using standard liquid chromatography with tandem mass spectrometry (LC-MS-MS) methods. For 5-HTP analysis, plasma samples were collected at T=0, 1, 2, 3, 4, 5, 6, 8, 10, 12, 14, 22, 24, 26, 28, 30, 32, 36, and 48 hr. For escitalopram analysis, plasma samples were collected on Day 7, Day 21 (pre-infusion), Day 22 (end of infusion), and Day 23 (24 hr after end of infusion). Plasma escitalopram levels were averaged across days 21-23, during the time-period when subjects were admitted to the clinic and received 5-HTP solution for IV infusion or placebo.
Statistical analysis. Subjects receiving placebo across the 5 cohorts (N=2 per cohort) were pooled. Descriptive statistics were calculated for each quantitative variable within each treatment group and placebo (n, mean, standard deviation, median, minimum, maximum).
PK analysis of plasma 5-HTP. The PK population included subjects who received 5-HTP solution for IV infusion and completed the 24 h infusion. PK parameters were computed for each Cohort/dose/infusion paradigm. Placebo data from all cohorts were pooled.

[3] = both sexes, human, plasma, intravenous, 1 mg/kg, individual subjects, Constant rate 1 mg/kg/24 hr
[4] = both sexes, human, plasma, intravenous, 1 mg/kg, individual subjects, Ramp rate 1 mg/kg/24 hr
[5] = both sexes, human, plasma, intravenous, 2 mg/kg, individual subjects, Ramp rate 2 mg/kg/24 hr
[6] = both sexes, human, plasma, intravenous, 3 mg/kg, individual subjects, Constant rate 3 mg/kg/24 hr
[7] = both sexes, human, plasma, intravenous, 3 mg/kg, individual subjects, Ramp rate 3 mg/kg/24 hr
[8] = both sexes, human, plasma, iv, 1 mg/kg, Cohort 1, constant rate 1 mg/kg/24 hr IV, healthy adults on escitalopram, mean, N=6
[9] = both sexes, human, plasma, iv, 1 mg/kg, Cohort 5, ramp rate 1 mg/kg/24 hr IV, healthy adults on escitalopram, mean, N=5
[10] = both sexes, human, plasma, iv, 2 mg/kg, Cohort 4, ramp rate 2 mg/kg/24 hr IV, healthy adults on escitalopram, mean, N=6
[11] = both sexes, human, plasma, iv, 3 mg/kg, Cohort 2, constant rate 3 mg/kg/24 hr IV, healthy adults on escitalopram, mean, N=4 completers
[12] = both sexes, human, plasma, iv, 3 mg/kg, Cohort 3, ramp rate 3 mg/kg/24 hr IV, healthy adults on escitalopram, mean, N=6
[13] = individual subjects, Constant rate 1 mg/kg/24 hr
[14] = individual subjects, Constant rate 3 mg/kg/24 hr
[15] = individual subjects, Ramp rate 1 mg/kg/24 hr
[16] = individual subjects, Ramp rate 2 mg/kg/24 hr
[17] = individual subjects, Ramp rate 3 mg/kg/24 hr

Q: Which results are given for `N[C@@H](Cc1c[nH]c2ccc(O)cc12)C(=O)O` [5-HTP, 5-hydroxytryptophan]?
A: solubility [1]: ~10000 µg/mL (≈ 45.4 mM); differences in CAve, AUCInf or AUCLast between constant rate and ramp rate infusion ([2]; 1 mg/kg/24 hr or 3 mg/kg/24 hr average infusion rates, p>0.05, unpaired t-test): no significant differences; CAve (0-24 h) ([2]; Cohort 1, constant rate 1 mg/kg/24 hr IV, healthy adults on escitalopram, mean, N=6): 94 ng/mL; initial 5-HTP plasma levels, T=1 h ([2]; Cohort 2, constant 3 mg/kg/24 hr, the 2 discontinued subjects): 304 ng/mL; CAve (0-24 h) ([2]; Cohort 2, constant rate 3 mg/kg/24 hr IV, healthy adults on escitalopram, mean, N=4 completers): 268 ng/mL; CAve (0-24 h) ([2]; Cohort 4, ramp rate 2 mg/kg/24 hr IV, healthy adults on escitalopram, mean, N=6): 160 ng/mL; CAve (0-24 h) ([2]; Cohort 5, ramp rate 1 mg/kg/24 hr IV, healthy adults on escitalopram, mean, N=5): 82 ng/mL; AUC(0-inf) [2, 3]: 2920 ng·h/mL; AUC(0-t) [2, 3]: 2830 ng·h/mL; CMax ([2]; both sexes, human, plasma, intravenous, 1 mg/kg, individual subjects, Constant rate 1 mg/kg/24 hr, read-out: CMax): 118 ng/mL; AUC(0-inf) [2, 4]: 2810 ng·h/mL; AUC(0-t) [2, 4]: 2770 ng·h/mL; CMax ([2]; both sexes, human, plasma, intravenous, 1 mg/kg, individual subjects, Ramp rate 1 mg/kg/24 hr, read-out: CMax): 179 ng/mL; AUC(0-inf) [2, 5]: 6650 ng·h/mL; AUC(0-t) [2, 5]: 6540 ng·h/mL; CMax ([2]; both sexes, human, plasma, intravenous, 2 mg/kg, individual subjects, Ramp rate 2 mg/kg/24 hr, read-out: CMax): 407 ng/mL; AUC(0-inf) [2, 6]: 8000 ng·h/mL; AUC(0-t) [2, 6]: 7960 ng·h/mL; CMax ([2]; both sexes, human, plasma, intravenous, 3 mg/kg, individual subjects, Constant rate 3 mg/kg/24 hr, read-out: CMax): 397 ng/mL; AUC(0-inf) [2, 7]: 11200 ng·h/mL; AUC(0-t) [2, 7]: 11100 ng·h/mL; CMax ([2]; both sexes, human, plasma, intravenous, 3 mg/kg, individual subjects, Ramp rate 3 mg/kg/24 hr, read-out: CMax): 613 ng/mL; AUC(0-inf) [2, 8]: 2970 ng·h/mL; AUC(0-t) [2, 8]: 2910 ng·h/mL; half-life [2, 8]: 3.71 h; CMax ([2]; both sexes, human, plasma, iv, 1 mg/kg, Cohort 1, constant rate 1 mg/kg/24 hr IV, healthy adults on escitalopram, mean, N=6, read-out: CMax): 141 ng/mL; AUC(0-inf) [2, 9]: 3290 ng·h/mL; AUC(0-t) [2, 9]: 3240 ng·h/mL; half-life [2, 9]: 4.52 h; CMax ([2]; both sexes, human, plasma, iv, 1 mg/kg, Cohort 5, ramp rate 1 mg/kg/24 hr IV, healthy adults on escitalopram, mean, N=5, read-out: CMax): 209 ng/mL; AUC(0-inf) [2, 10]: 6440 ng·h/mL; AUC(0-t) [2, 10]: 6330 ng·h/mL; half-life [2, 10]: 4.4 h; CMax ([2]; both sexes, human, plasma, iv, 2 mg/kg, Cohort 4, ramp rate 2 mg/kg/24 hr IV, healthy adults on escitalopram, mean, N=6, read-out: CMax): 395 ng/mL; AUC(0-inf) [2, 11]: 8850 ng·h/mL; AUC(0-t) [2, 11]: 8800 ng·h/mL; half-life [2, 11]: 4.84 h; CMax ([2]; both sexes, human, plasma, iv, 3 mg/kg, Cohort 2, constant rate 3 mg/kg/24 hr IV, healthy adults on escitalopram, mean, N=4 completers, read-out: CMax): 427 ng/mL; AUC(0-inf) [2, 12]: 11000 ng·h/mL; AUC(0-t) [2, 12]: 10900 ng·h/mL; half-life [2, 12]: 5.1 h; CMax ([2]; both sexes, human, plasma, iv, 3 mg/kg, Cohort 3, ramp rate 3 mg/kg/24 hr IV, healthy adults on escitalopram, mean, N=6, read-out: CMax): ~592 ng/mL; time to average steady state plasma levels after start of infusion ([2]; constant 5-HTP infusion rates 1 mg/kg/24 hr and 3 mg/kg/24 hr): approximately 4 h; concentration at 1 h ([2]; human, plasma, intravenous, 3 mg/kg/24 hr, Cohort 2, constant 3 mg/kg/24 hr, the 2 discontinued subjects, read-out: initial 5-HTP plasma levels, T=1 h): 248 ng/mL; AUCInf [2, 13]: 2551.36 ng·h/mL and 2930.09 ng·h/mL and 3832.68 ng·h/mL and 2234.41 ng·h/mL and 3351.07 ng·h/mL; AUCLast [2, 13]: 2530.16 ng·h/mL and 2885.80 ng·h/mL and 3762.18 ng·h/mL and 2185.63 ng·h/mL and 3291.36 ng·h/mL; CMax [2, 13]: 112 ng/mL and 143 ng/mL and 189 ng/mL and 114 ng/mL and 169 ng/mL; AUCInf [2, 14]: 9781.13 ng·h/mL and 7039.23 ng·h/mL and 10597.49 ng·h/mL; AUCLast [2, 14]: 9690.71 ng·h/mL and 6999.32 ng·h/mL and 10537.75 ng·h/mL; CMax [2, 14]: 480 ng/mL and 320 ng/mL and 512 ng/mL; AUCInf [2, 15]: 4399.83 ng·h/mL and 3862.84 ng·h/mL and 2807.47 ng·h/mL and 2572.27 ng·h/mL; AUCLast [2, 15]: 4345.10 ng·h/mL and 3799.02 ng·h/mL and 2767.78 ng·h/mL and 2505.93 ng·h/mL; CMax [2, 15]: 266 ng/mL and 247 ng/mL and 192 ng/mL and 160 ng/mL; AUCInf [2, 16]: 6254.18 ng·h/mL and 6207.11 ng·h/mL and 6316.80 ng·h/mL and 6043.68 ng·h/mL and 7134.20 ng·h/mL; AUCLast [2, 16]: 6191.76 ng·h/mL and 6095.21 ng·h/mL and 6245.16 ng·h/mL and 5955.75 ng·h/mL and 6968.01 ng·h/mL; CMax [2, 16]: 373 ng/mL and 352 ng/mL and 385 ng/mL and 414 ng/mL and 437 ng/mL; AUCInf [2, 17]: 11393.96 ng·h/mL and 13786.66 ng·h/mL and 10786.90 ng·h/mL and 8427.71 ng·h/mL and 10152.61 ng·h/mL; AUCLast [2, 17]: 11310.89 ng·h/mL and 13698.51 ng·h/mL and 10738.77 ng·h/mL and 8350.62 ng·h/mL and 10098.28 ng·h/mL; CMax [2, 17]: 660 ng/mL and 679 ng/mL and 644 ng/mL and 454 ng/mL and 502 ng/mL; time to average steady state plasma levels ([2]; variable (ramp) infusion, average rate 1-, 2-, and 3 mg/kg/24 hr): 14 to 24 h
